Patent US8273775B2, “Non-steroidal brassinosteroid mimetic” (priority 2006, dated 2012)

Tested on: gene expression in Col-0 seedling shoots
Assay: Microarray analysis (ATH1 Affymetrix) after BL or abrasin treatment
Assay type: in vivo, Arabidopsis
Conditions: 120 min
Description: FIG. 14: Clustering of gene expression profiles by QT-clust analysis. Clusters illustrating the major patterns of the data sets. Points: BIK-30: 30 μM abrasin 30 min; BL-30: 1 μM brassinolide 30 min; DMSO-30: control DMSO 30 min; BIK-120: 30 μM abrasin 120 min; BL-120: 1 μM brassinolide 120 min; DMSO-120: control DMSO 120 min.
Col-0 seeds were germinated vertically on ½ MS medium for 7 days under 16 h light/8 h dark cycles. The seedlings were overlaid with liquid ½ MS medium containing 1 μM brassinolide (BL, Fuji Chemical Industries, Ltd., Toyama, Japan), 30 μM abrasin (BIK, ChemBridge Corporation) and DMSO and treated for 30 and 120 min. The shoot parts were collected for RNA isolation. All sampling points were performed in three independent experiments. RNA was extracted using RNeasy kit (Qiagene). […] total RNA per array was used to hybridise the ATH1 Affymetrix Arabidopsis arrays according to standard procedure. The overrepresentation analyses were performed using BiNGO software (Maere et al., 2005).
We performed a microarray analysis using the Arabidopsis whole genome chip (Affymetix) to determine whether abrasin activated the expression of BR-inducible genes at transcriptional level. Wild-type Col-0 seedlings were exposed to 1 μM BL, 30 μM ABRASIN and DMSO (mock-treatment) for two time points (30 min and 120 min) and the shoot parts were collected for RNA isolation. The analysis of the variance of the normalized gene expression data took in account the variability parameters affecting the expression level: type of hormone treatment, duration of treatment and the interaction between these two.

O=C(O)CCC(=O)Nc1ccc(Br)cn1 [abrasin, 4-[(5-bromo-2-pyridinyl)amino]-4-oxobutanoic acid]
Fold-change AT4G16780 homeobox-leucine zipper protein 4 (HAT4)/HD-ZIP protein: 0.42
Fold-change AT4G17250 expressed protein: 3.32
Fold-change AT4G17460 homeobox-leucine zipper protein 1 (HAT1)/HD-ZIP protein 1: 0.11
Fold-change AT4G21510 F-box family protein: 2.54
Fold-change AT4G23030 MATE efflux protein-related: 5.25
Fold-change AT4G23070 rhomboid family protein: 3.80
Fold-change AT4G23810 WRKY family transcription factor: 1.00
Fold-change AT4G24160 hydrolase, alpha/beta fold family protein: 2.29
Fold-change AT4G25620 hydroxyproline-rich glycoprotein family protein: 0.49
Fold-change AT4G25780 pathogenesis-related protein: 0.18
Fold-change AT4G27970 C4-dicarboxylate transporter/malic acid transport family protein: 3.04
Fold-change AT4G28240 wound-responsive protein-related: 0.33
Fold-change AT4G28490 leucine-rich repeat transmembrane protein kinase, putative: 2.30
Fold-change AT4G28703 expressed protein: 6.14
Fold-change AT4G28780 GDSL-motif lipase/hydrolase family protein: 1.26
Fold-change AT4G29070 expressed protein: 0.50
Fold-change AT4G30080 transcriptional factor B3 family protein: 0.41
Fold-change AT4G31020 expressed protein: 5.81
Fold-change AT4G32280 auxin-responsive AUX/IAA family protein (IAA29): 0.13
Fold-change AT4G33050 calmodulin-binding family protein: 1.58
Fold-change AT4G33700 CBS domain-containing protein: 0.38
Fold-change AT4G34610 homeodomain-containing protein: 0.41
Fold-change AT4G36110 auxin-responsive protein: 4.62
Fold-change AT4G36780 brassinosteroid signalling positive regulator-related: 0.03
Fold-change AT4G37240 expressed protein: 1.45
Fold-change AT4G37290 expressed protein: 2.45
Fold-change AT4G37590 phototropic-responsive NPH3 family protein: 0.43
Fold-change AT4G38840 auxin-responsive protein (SAUR14): 1.95
Fold-change AT4G38850 auxin-responsive protein (SAUR-AC1): 2.22
Fold-change AT4G38860 auxin-responsive protein (SAUR16): 2.27
Fold-change AT4G39400 brassinosteroid insensitive 1 (BRI1): 0.46
Fold-change AT5G02020 expressed protein: 2.29
Fold-change AT5G05690 cytochrome P450 90A1 (CYP90A1) (CYP90) (CPD): 0.29
Fold-change AT5G07690 myb family transcription factor (MYB29): 0.27
Fold-change AT5G08130 basic helix-loop-helix (bHLH) family protein (BIM2): 0.37
Fold-change AT5G12050 expressed protein: 0.27
Fold-change AT5G13180 no apical meristem (NAM) family protein: 0.39
Fold-change AT5G13740 sugar transporter family protein: 0.23
Fold-change AT5G14730 expressed protein: 0.53
Fold-change AT5G16200 50S ribosomal protein-related: 0.10
Fold-change AT5G16980 NADP-dependent oxidoreductase: 3.07
Fold-change AT5G18750 DNAJ heat shock N-terminal domain-containing protein: 1.26
Fold-change AT5G19200 short-chain dehydrogenase/reductase (SDR) family protein: 1.11
Fold-change AT5G19340 expressed protein: 0.23
Fold-change AT5G24030 C4-dicarboxylate transporter/malic acid transport family protein: 1.66
Fold-change AT5G24660 expressed protein: 3.61
Fold-change AT5G25240 expressed protein: 2.16
Fold-change AT5G25930 leucine-rich repeat family protein: 1.38
Fold-change AT5G27350 sugar-porter family protein 1 (SFP1): 1.56
Fold-change AT5G27670 histone H2A: 0.41
Fold-change AT5G38310 expressed protein: 1.88
Fold-change AT5G38990; AT5G39000 [AT5G38990, protein kinase family protein: 2.08
Fold-change AT5G39050 transferase family protein: 1.83
Fold-change AT5G39610 no apical meristem (NAM) family protein: 0.35
Fold-change AT5G39970 expressed protein: 2.66
Fold-change AT5G42830 transferase family protein: 2.74
Fold-change AT5G47370 homeobox-leucine zipper protein 2 (HAT2): 0.43
Fold-change AT5G48070 putative xyloglucan endotransglycosylase/hydrolase: 3.63
Fold-change AT5G48540 33 kDa secretory protein-related: 2.03
Fold-change AT5G51550 phosphate-responsive 1 family protein: 0.41
Fold-change AT5G54490 calcium-binding EF-hand protein, putative: 3.06
Fold-change AT5G54860 integral membrane transporter family protein: 2.01
Fold-change AT5G55970 zinc finger (C3HC4-type RING finger) family protein: 2.56
Fold-change AT5G56980 expressed protein: 0.22
Fold-change AT5G57190 phosphatidylserine decarboxylase: 1.58
Fold-change AT5G57780 expressed protein: 0.13
Fold-change AT5G59080 expressed protein: 0.40
Fold-change AT5G60200 Dof-type zinc finger domain-containing protein: 3.85
Fold-change AT5G60270 lectin protein kinase family protein: 2.56
Fold-change AT5G60630 expressed protein: 2.20
Fold-change AT5G61600 encodes a member of the ERF (ethylene response factor): 2.04
Fold-change AT5G62360 invertase/pectin methylesterase inhibitor family protein: 0.25
Fold-change AT5G65310 homeobox-leucine zipper protein 5 (HB-5)/HD-ZIP transcription factor 5: 0.20
Fold-change AT5G66420 expressed protein: 0.42
Fold-change AT5G66590 allergen V5/Tpx-1-related family protein: 0.31
Fold-change AT5G67450 zinc finger (C2H2 type) protein 1 (AZF1): 1.82
Fold-change of gene AT4G16140 (proline-rich family protein) (245479_at, Cluster 6): 1.51
Fold-change of gene AT4G15260 (UDP-glucoronosyl/UDP-glucosyl transferase family protein) (245543_at, Cluster 7): 1.52
Fold-change of gene AT5G09440 (phosphate-responsive protein, putative) (245885_at, Cluster 5): 0.13
Fold-change of gene AT1G77380 (amino acid carrier) (246389_at, Cluster 10): 0.99
Fold-change of gene AT5G15740 (expressed protein) (246516_at, Cluster 5): 0.49
Fold-change of gene AT5G65300 (expressed protein) (247177_at, Cluster 5): 0.25
Fold-change of gene AT5G64890 (expressed protein) (247205_at, Cluster 10): 2.18
Fold-change of gene AT5G63790 (no apical meristem (NAM) family protein) (247351_at, Cluster 9): 0.69
Fold-change of gene AT5G62630 (expressed protein) (247444_at, Cluster 7): 2.28
Fold-change of gene AT5G60850 (Dof-type zinc finger domain-containing protein) (247601_at, Cluster 10): 0.64
Fold-change of gene AT5G59510 (expressed protein) (247704_at, Cluster 9): 0.60
Fold-change of gene AT5G58660 (oxidoreductase. 2OG-Fe(II) oxygenase family protein) (247774_at, Cluster 5): 2.15
Fold-change of gene AT5G54120 (expressed protein) (248190_at, Cluster 5): 0.38
Fold-change of gene AT5G54130 (calcium-binding EF hand family protein) (248191_at, Cluster 5): 0.31
Fold-change of gene AT5G52900 (expressed protein) (248282_at, Cluster 6): 0.96
Fold-change of gene AT5G49100 (expressed protein) (248646_at, Cluster 9): 0.62
Fold-change of gene AT5G18060 (auxin-responsive protein) (250012_x_at, Cluster 6): 0.46
Fold-change of gene AT5G09800 (U-box domain-containing protein) (250493_at, Cluster 9): 0.80
Fold-change of gene AT5G08565 (expressed protein) (250537_at, Cluster 8): 0.41
Fold-change of gene AT5G03670 (expressed protein) (250907_at, Cluster 5): 0.32
Fold-change of gene AT5G01740 (expressed protein) (251072_at, Cluster 5): 0.34
Fold-change of gene AT3G63380 (calcium-transporting ATPase) (251176_at, Cluster 10): 0.11
Fold-change of gene AT3G60690 (auxin-responsive family protein) (251342_at, Cluster 9): 0.29
Fold-change of gene AT3G45610 (Dof-type zinc finger domain) (252586_at, Cluster 10): 2.56
Fold-change of gene AT3G44610 (protein kinase family protein) (252646_at, Cluster 5): 0.38
Fold-change of gene AT4G34760 (auxin-responsive family protein) (253255_at, Cluster 6): 1.61
Fold-change of gene AT4G34138 (UDP-glucoronosyl/UDP-glucosyl transferase family protein) (253281_at, Cluster 7): 3.16
Fold-change of gene AT4G31910 (transferase family protein) (253483_at, Cluster 5): 1.60
Fold-change of gene AT4G30410 (expressed protein) (253617_at, Cluster 5): 0.45
Fold-change of gene AT4G30450 (glycine-rich protein) (253629_at, Cluster 5): 0.39
Fold-change of gene AT4G26200 (1-aminocyclopropane-1-carboxylate synthase) (253999_at, Cluster 9): 0.24
Fold-change of gene AT4G03400 (auxin-responsive GH3 family protein) (255403_at, Cluster 6): 0.77
Fold-change of gene AT4G02700 (sulfate transporter) (255443_at, Cluster 7): 2.16
Fold-change of gene AT1G22190 (AP2 domain-containing transcription factor) (255926_at, Cluster 8): 0.50
Fold-change of gene AT1G66140 (zinc finger (C2H2 type) family protein) (256528_at, Cluster 6): 0.61
Fold-change of gene AT3G25655 (expressed protein) (256762_at, Cluster 8): 0.15
Fold-change of gene AT3G21420 (oxidoreductase, 2OG-Fe(II) oxygenase family protein) (256818_at, Cluster 7): 2.39
Fold-change of gene AT3G18280 (protease inhibitor/seed storage/lipid transfer protein) (257066_at, Cluster 5): 0.39
Fold-change of gene AT1G29440 (auxin-responsive family protein) (257506_at, Cluster 6): 0.47
Fold-change of gene AT3G29200 (chorismate mutase, chloroplast (CM1)) (257746_at, Cluster 5): 0.49
Fold-change of gene AT1G13260 (DNA-binding protein RAV1 (RAV1)) (259364_at, Cluster 8): 0.46
Fold-change of gene AT1G29500 (auxin-responsive protein) (259773_at, Cluster 6): 0.61
Fold-change of gene AT1G29510 (auxin-responsive protein) (259783_at, Cluster 6): 0.50
Fold-change of gene AT1G29450 (auxin-responsive protein) (259784_at, Cluster 6): 0.61
Fold-change of gene AT1G29460 (auxin-responsive protein) (259787_at, Cluster 6): 0.44
Fold-change of gene AT1G76690; AT1G76680 ([AT1G76690, 12-oxophytodienoate reductase (OPR2)) (259875_s_at, Cluster 7): 6.14
Fold-change of gene AT1G76620 (expressed protein) (259985_at, Cluster 8): 0.28
Fold-change of gene AT1G63720 (expressed protein) (260243_at, Cluster 10): 0.16
Fold-change of gene AT1G48100 (glycoside hydrolase family 28 protein) (260727_at, Cluster 8): 0.38
Fold-change of gene AT1G12200 (flavin-containing monooxygenase family protein) (261023_at, Cluster 7): 2.20
Fold-change of gene AT1G12845 (expressed protein) (261203_at, Cluster 6): 2.71
Fold-change of gene AT1G15550 (gibberellin 3-beta-dioxygenase) (261768_at, Cluster 6): 1.17
Fold-change of gene AT1G80840 (WRKY family transcription factor) (261892_at, Cluster 9): 0.20
Fold-change of gene AT1G80080 (leucine-rich repeat family protein) (262040_at, Cluster 6): 2.07
Fold-change of gene AT1G80130 (expressed protein) (262050_at, Cluster 8): 0.18
Fold-change of gene AT1G21680 (expressed protein) (262505_at, Cluster 10): 2.01
Fold-change of gene AT1G34245 (expressed protein) (262543_at, Cluster 6): 5.18
Fold-change of gene AT1G78460 (SOUL heme-binding family protein) (263126_at, Cluster 7): 2.50
Fold-change of gene AT1G78820; AT1G78830 ([AT1G78820, curculin-like (mannose-binding) lectin family protein) (264279_s_at, Cluster 7): 1.84
Fold-change of gene AT2G42380 (bZIP transcription factor family protein) (265877_at, Cluster 6): 0.80
Fold-change of gene AT2G45080 (cyclin family protein) (266124_at, Cluster 8): 0.10
